Test results as given in ChEMBL document CHEMBL1177794, “Broad spectrum alkynyl inhibitors of T315I Bcr-Abl” (Bioorg Med Chem Lett, 2010).

Legend:
[1] = target: Serine/threonine-protein kinase/endoribonuclease IRE1 (Homo sapiens) (UniProt O75460); experiment: Inhibition of ERN1 at 10 uM; conditions: values are per cent of control
[2] = target: Serine/threonine-protein kinase tousled-like 2 (Homo sapiens) (UniProt Q86UE8); experiment: Inhibition of TLK2 at 10 uM; conditions: values are per cent of control
[3] = target: Serine/threonine-protein kinase MRCK gamma (Homo sapiens) (UniProt Q6DT37); experiment: Inhibition of DMPK2 at 10 uM; conditions: values are per cent of control
[4] = target: Tyrosine-protein kinase Tec (Homo sapiens) (UniProt P42680); experiment: Inhibition of TEC at 10 uM; values are per cent of control
[5] = target: Myosin light chain kinase, smooth muscle (Homo sapiens) (UniProt Q15746); experiment: Inhibition of MYLK at 10 uM
[6] = target: Cyclin-dependent kinase 5 (Homo sapiens) (UniProt Q00535); experiment: Inhibition of CDK5 at 10 uM; values are per cent of control
[7] = target: Ribosomal protein S6 kinase alpha-2 (Homo sapiens) (UniProt Q15349); experiment: Inhibition of RSK3 C-terminal domain2 at 10 uM
[8] = target: MAP kinase-interacting serine/threonine-protein kinase 1 (Homo sapiens) (UniProt Q9BUB5); experiment: Inhibition of MKNK1 at 10 uM
[9] = target: Serine/threonine-protein kinase PLK3 (Homo sapiens) (UniProt Q9H4B4); experiment: Inhibition of PLK3 at 10 uM
[10] = target: Calcium/calmodulin-dependent protein kinase type II subunit alpha (Homo sapiens) (UniProt Q9UQM7); experiment: Inhibition of CAMK2A at 10 uM; conditions: values are per cent of control
[11] = test system: Proto-oncogene tyrosine-protein kinase receptor Ret (Homo sapiens), P07949 [V804L]; experiment: Inhibition of RET V804L mutant at 10 uM; values are per cent of control
[12] = target: BDNF/NT-3 growth factors receptor (Homo sapiens) (UniProt Q16620); experiment: Inhibition of TRKB at 10 uM; conditions: values are per cent of control
[13] = test system: Mast/stem cell growth factor receptor Kit (Homo sapiens), P10721 [A829P]; experiment: Inhibition of KIT A829P mutant at 10 uM; conditions: values are per cent of control
[14] = target: Cyclin-dependent kinase-like 5 (Homo sapiens) (UniProt O76039); experiment: Inhibition of CDKL5 at 10 uM; conditions: values are per cent of control
[15] = target: Membrane-associated tyrosine- and threonine-specific cdc2-inhibitory kinase (Homo sapiens) (UniProt Q99640); experiment: Inhibition of PKMYT1 at 10 uM
[16] = target: Serine/threonine-protein kinase SIK2 (Homo sapiens) (UniProt Q9H0K1); experiment: Inhibition of SIK2 at 10 uM
[17] = test system: Epidermal growth factor receptor (Homo sapiens), P00533 [L858R,T790M]; experiment: Inhibition of EGFR L858R, T790M mutant at 10 uM; values are per cent of control
[18] = target: Inhibitor of nuclear factor kappa-B kinase subunit epsilon (Homo sapiens) (UniProt Q14164); experiment: Inhibition of IKK-epsilon at 10 uM; conditions: values are per cent of control
[19] = target: Leucine-rich repeat serine/threonine-protein kinase 2 (Homo sapiens) (UniProt Q5S007); experiment: Inhibition of LRRK2 at 10 uM; conditions: values are per cent of control
[20] = target: NT-3 growth factor receptor (Homo sapiens) (UniProt Q16288); experiment: Inhibition of TRKC at 10 uM; conditions: values are per cent of control
[21] = target: Tyrosine-protein kinase receptor Tie-1 (Homo sapiens) (UniProt P35590); experiment: Inhibition of TIE1 at 10 uM
[22] = target: Cyclin-G-associated kinase (Homo sapiens) (UniProt O14976); experiment: Inhibition of GAK at 10 uM; conditions: values are per cent of control
[23] = target: Cyclin-dependent kinase 17 (Homo sapiens) (UniProt Q00537); experiment: Inhibition of PCTK2 at 10 uM; conditions: values are per cent of control
[24] = target: Mitogen-activated protein kinase kinase kinase 15 (Homo sapiens) (UniProt Q6ZN16); experiment: Inhibition of MAP3K15 at 10 uM; conditions: values are per cent of control
[25] = target: Mitogen-activated protein kinase kinase kinase 13 (Homo sapiens) (UniProt O43283); experiment: Inhibition of LZK at 10 uM; values are per cent of control
[26] = target: Serine/threonine-protein kinase 25 (Homo sapiens) (UniProt O00506); experiment: Inhibition of YSK1 at 10 uM; conditions: values are per cent of control
[27] = target: Serine/threonine-protein kinase DCLK2 (Homo sapiens) (UniProt Q8N568); experiment: Inhibition of DCAMKL2 at 10 uM; conditions: values are per cent of control
[28] = target: Ephrin type-A receptor 6 (Homo sapiens) (UniProt Q9UF33); experiment: Inhibition of EPHA6 at 10 uM; conditions: values are per cent of control
[29] = target: Dual specificity tyrosine-phosphorylation-regulated kinase 1B (Homo sapiens) (UniProt Q9Y463); experiment: Inhibition of DYRK1B at 10 uM; conditions: values are per cent of control
[30] = target: Platelet-derived growth factor receptor alpha (Homo sapiens) (UniProt P16234); experiment: Inhibition of PDGFRA at 10 uM; conditions: values are per cent of control
[31] = target: Tyrosine-protein kinase Blk (Homo sapiens) (UniProt P51451); experiment: Inhibition of BLK at 10 uM; conditions: values are per cent of control
[32] = target: Receptor tyrosine-protein kinase erbB-2 (Homo sapiens) (UniProt P04626); experiment: Inhibition of ERBB2 at 10 uM; values are per cent of control
[33] = target: Ephrin type-B receptor 4 (Homo sapiens) (UniProt P54760); experiment: Inhibition of EPHB4 at 10 uM; conditions: values are per cent of control
[34] = target: Muscle, skeletal receptor tyrosine-protein kinase (Homo sapiens) (UniProt O15146); experiment: Inhibition of MUSK at 10 uM
[35] = test system: Serine/threonine-protein kinase B-raf (Homo sapiens), P15056 [V600E]; experiment: Inhibition of BRAF V600E mutant at 10 uM; conditions: values are per cent of control
[36] = target: Mitogen-activated protein kinase 10 (Homo sapiens) (UniProt P53779); experiment: Inhibition of JNK3 at 10 uM; values are per cent of control
[37] = target: Cyclin-dependent kinase 3 (Homo sapiens) (UniProt Q00526); experiment: Inhibition of CDK3 at 10 uM; values are per cent of control
[38] = target: Bone morphogenetic protein receptor type-1B (Homo sapiens) (UniProt O00238); experiment: Inhibition of BMPR1B at 10 uM; conditions: values are per cent of control
[39] = target: Cyclin-dependent kinase-like 3 (Homo sapiens) (UniProt Q8IVW4); experiment: Inhibition of CDKL3 at 10 uM; conditions: values are per cent of control
[40] = test system: Phosphatidylinositol 4,5-bisphosphate 3-kinase catalytic subunit alpha isoform (Homo sapiens), P42336 [E545A]; experiment: Inhibition of PIK3CA E545A mutant at 10 uM
[41] = target: Ephrin type-B receptor 2 (Homo sapiens) (UniProt P29323); experiment: Inhibition of EPHB2 at 10 uM; values are per cent of control
[42] = target: Serine/threonine-protein kinase tousled-like 1 (Homo sapiens) (UniProt Q9UKI8); experiment: Inhibition of TLK1 at 10 uM

Cyclin-dependent kinase 17 (Homo sapiens), sequence (Q00537 whole entry, looked up): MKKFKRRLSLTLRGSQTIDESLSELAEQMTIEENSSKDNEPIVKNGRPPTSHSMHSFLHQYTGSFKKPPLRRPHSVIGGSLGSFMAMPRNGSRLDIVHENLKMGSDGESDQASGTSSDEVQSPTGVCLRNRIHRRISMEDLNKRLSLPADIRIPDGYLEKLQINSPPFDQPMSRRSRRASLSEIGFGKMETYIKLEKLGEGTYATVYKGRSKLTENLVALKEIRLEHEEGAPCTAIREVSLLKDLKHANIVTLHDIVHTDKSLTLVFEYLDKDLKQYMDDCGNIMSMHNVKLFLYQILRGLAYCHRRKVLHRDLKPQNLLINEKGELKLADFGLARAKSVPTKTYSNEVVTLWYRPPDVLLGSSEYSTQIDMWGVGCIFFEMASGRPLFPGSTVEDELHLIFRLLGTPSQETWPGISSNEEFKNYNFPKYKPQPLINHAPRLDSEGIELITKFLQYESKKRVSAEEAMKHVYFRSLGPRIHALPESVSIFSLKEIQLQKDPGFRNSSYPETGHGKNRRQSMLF
Epidermal growth factor receptor (Homo sapiens), P00533 [L858R,T790M], sequence (P00533 whole entry T790M/L858R, looked up): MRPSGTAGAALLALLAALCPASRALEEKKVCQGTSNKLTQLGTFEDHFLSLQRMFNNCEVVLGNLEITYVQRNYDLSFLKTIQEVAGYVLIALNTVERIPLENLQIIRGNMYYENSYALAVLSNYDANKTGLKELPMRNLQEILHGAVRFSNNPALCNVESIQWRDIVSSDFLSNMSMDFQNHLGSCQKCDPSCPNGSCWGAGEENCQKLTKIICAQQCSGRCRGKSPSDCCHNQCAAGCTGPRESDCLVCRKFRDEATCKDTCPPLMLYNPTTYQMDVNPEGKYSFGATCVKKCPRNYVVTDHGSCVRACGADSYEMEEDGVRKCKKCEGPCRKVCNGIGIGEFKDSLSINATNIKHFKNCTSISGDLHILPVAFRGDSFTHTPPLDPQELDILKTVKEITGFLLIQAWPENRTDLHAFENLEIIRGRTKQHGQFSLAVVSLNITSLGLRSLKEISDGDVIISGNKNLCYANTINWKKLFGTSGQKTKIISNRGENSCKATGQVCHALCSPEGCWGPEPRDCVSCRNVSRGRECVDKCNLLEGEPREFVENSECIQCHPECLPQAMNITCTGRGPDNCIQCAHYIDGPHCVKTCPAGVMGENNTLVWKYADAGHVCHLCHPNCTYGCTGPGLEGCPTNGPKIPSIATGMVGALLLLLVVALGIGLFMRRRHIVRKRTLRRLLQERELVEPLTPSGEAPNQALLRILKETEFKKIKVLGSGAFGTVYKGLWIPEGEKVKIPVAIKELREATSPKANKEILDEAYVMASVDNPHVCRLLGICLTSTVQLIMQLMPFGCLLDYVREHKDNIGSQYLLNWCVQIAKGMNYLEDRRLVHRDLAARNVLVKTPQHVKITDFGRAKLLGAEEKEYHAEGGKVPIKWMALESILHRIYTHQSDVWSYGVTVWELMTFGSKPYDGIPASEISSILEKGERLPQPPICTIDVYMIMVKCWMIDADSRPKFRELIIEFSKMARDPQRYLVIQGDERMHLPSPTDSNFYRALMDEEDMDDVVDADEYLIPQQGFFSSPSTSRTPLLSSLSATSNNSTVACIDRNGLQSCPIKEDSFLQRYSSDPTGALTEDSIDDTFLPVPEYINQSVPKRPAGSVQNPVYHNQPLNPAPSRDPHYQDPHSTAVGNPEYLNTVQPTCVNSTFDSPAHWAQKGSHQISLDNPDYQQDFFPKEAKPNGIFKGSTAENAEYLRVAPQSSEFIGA
MAP kinase-interacting serine/threonine-protein kinase 1 (Homo sapiens), sequence (Q9BUB5 whole entry, looked up): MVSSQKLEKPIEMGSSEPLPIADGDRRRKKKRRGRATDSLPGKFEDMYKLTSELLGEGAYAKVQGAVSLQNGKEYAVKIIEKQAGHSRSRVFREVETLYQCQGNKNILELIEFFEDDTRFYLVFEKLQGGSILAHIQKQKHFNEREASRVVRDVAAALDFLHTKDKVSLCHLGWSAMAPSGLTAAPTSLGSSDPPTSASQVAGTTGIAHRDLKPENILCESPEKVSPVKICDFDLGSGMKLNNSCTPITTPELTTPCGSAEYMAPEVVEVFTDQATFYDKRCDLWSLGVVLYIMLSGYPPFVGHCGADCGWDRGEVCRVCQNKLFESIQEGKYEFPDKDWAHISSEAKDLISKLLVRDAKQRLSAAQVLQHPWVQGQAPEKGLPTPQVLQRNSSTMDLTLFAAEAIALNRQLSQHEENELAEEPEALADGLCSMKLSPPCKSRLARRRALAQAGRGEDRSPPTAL
Cyclin-dependent kinase-like 3 (Homo sapiens), sequence (Q8IVW4 whole entry, looked up, canonical isoform): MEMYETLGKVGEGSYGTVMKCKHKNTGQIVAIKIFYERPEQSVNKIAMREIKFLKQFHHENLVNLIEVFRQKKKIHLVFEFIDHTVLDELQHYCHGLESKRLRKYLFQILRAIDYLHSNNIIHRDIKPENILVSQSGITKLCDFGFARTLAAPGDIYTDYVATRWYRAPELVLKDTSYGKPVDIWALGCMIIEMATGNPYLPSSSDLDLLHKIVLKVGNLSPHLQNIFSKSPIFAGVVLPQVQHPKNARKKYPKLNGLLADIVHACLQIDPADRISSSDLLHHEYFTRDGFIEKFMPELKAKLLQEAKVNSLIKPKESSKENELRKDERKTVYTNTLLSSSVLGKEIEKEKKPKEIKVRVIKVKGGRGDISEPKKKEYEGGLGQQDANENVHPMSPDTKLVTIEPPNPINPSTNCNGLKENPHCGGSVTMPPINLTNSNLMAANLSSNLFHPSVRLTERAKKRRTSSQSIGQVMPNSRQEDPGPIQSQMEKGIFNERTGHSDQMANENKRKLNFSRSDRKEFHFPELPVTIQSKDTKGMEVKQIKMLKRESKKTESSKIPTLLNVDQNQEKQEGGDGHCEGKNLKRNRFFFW
Muscle, skeletal receptor tyrosine-protein kinase (Homo sapiens), sequence (O15146 whole entry): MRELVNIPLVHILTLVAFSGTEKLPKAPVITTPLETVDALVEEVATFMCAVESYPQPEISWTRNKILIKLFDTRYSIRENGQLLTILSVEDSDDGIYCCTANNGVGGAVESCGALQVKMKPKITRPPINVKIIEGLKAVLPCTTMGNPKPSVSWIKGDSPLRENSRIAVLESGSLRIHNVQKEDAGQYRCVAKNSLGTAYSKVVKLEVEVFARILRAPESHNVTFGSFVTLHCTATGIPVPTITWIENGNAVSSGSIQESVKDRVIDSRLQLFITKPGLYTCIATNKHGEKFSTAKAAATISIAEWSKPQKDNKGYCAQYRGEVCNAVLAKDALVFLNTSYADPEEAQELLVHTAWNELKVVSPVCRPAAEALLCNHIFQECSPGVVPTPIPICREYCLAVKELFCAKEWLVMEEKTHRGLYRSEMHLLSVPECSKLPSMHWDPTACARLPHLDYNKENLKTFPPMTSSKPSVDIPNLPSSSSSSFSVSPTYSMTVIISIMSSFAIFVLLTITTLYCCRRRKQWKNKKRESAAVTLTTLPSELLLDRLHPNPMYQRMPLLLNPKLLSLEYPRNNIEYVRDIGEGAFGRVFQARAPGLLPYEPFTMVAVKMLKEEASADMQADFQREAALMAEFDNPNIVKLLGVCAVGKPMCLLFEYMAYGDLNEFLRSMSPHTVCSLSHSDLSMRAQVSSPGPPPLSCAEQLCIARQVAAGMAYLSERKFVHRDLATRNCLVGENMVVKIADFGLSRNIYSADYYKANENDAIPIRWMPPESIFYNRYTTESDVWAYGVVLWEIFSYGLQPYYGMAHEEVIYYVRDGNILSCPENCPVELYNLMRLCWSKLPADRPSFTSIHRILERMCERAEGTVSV
Serine/threonine-protein kinase 25 (Homo sapiens), sequence (O00506 whole entry, looked up): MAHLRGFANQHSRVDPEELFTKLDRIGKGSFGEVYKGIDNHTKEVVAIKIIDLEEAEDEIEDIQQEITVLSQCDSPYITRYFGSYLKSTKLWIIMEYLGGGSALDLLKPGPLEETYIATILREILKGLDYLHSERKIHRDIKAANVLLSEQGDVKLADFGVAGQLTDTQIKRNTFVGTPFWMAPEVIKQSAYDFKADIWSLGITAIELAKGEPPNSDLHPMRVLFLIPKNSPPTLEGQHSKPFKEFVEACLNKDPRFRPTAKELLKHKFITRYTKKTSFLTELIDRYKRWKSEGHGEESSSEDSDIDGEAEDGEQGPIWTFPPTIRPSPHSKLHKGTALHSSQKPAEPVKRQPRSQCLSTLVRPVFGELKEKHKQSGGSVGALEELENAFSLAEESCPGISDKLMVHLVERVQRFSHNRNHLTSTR
Ribosomal protein S6 kinase alpha-2 (Homo sapiens), sequence (Q15349 whole entry, the tested form may be a part): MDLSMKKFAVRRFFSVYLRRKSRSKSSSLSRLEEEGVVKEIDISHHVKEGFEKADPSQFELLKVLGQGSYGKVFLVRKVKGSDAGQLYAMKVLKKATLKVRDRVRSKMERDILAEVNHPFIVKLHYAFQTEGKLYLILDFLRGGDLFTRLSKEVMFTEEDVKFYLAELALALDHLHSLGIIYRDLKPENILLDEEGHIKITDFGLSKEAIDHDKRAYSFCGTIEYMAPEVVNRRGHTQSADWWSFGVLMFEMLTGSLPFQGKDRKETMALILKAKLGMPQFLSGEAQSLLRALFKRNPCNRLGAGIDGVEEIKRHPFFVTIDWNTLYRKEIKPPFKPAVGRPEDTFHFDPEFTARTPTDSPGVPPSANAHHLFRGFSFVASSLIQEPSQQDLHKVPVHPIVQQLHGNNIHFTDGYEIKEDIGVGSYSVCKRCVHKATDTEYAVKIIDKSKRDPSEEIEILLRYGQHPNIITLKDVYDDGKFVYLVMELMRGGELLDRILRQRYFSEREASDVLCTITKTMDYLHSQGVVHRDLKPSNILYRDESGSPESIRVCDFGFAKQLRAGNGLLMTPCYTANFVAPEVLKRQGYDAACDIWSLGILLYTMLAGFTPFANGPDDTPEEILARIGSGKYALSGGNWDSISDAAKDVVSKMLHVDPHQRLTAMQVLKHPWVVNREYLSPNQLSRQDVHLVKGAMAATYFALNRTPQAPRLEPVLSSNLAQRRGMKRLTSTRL

Compound: CCN1CCN(Cc2ccc(NC(=O)c3ccc(C)c(C#Cc4cnc5[nH]ccc5c4)c3)cc2C(F)(F)F)CC1
- residual binding, % of control [1]: 54%
- residual binding, % of control [2]: 100%
- residual binding, % of control [3]: 35%
- % of control [4]: 0.1%
- inhibition [5]: 56%
- level, % of control [6]: 24%
- inhibition [7]: 87%
- inhibition [8]: 1.2%
- inhibition [9]: 92%
- residual binding, % of control [10]: 100%
- level, % of control [11]: 0%
- residual binding, % of control [12]: 2%
- residual binding, % of control [13]: 24%
- residual binding, % of control [14]: 28%
- inhibition [15]: 48%
- inhibition [16]: 18%
- level, % of control [17]: 100%
- residual binding, % of control [18]: 92%
- residual binding, % of control [19]: 6.2%
- residual binding, % of control [20]: 0.35%
- inhibition [21]: 1.1%
- residual binding, % of control [22]: 2%
- residual binding, % of control [23]: 3.7%
- residual binding, % of control [24]: 72%
- level, % of control [25]: 7.8%
- residual binding, % of control [26]: 12%
- residual binding, % of control [27]: 30%
- residual binding, % of control [28]: 0.15%
- residual binding, % of control [29]: 15%
- residual binding, % of control [30]: 0%
- residual binding, % of control [31]: 0%
- level, % of control [32]: 0.3%
- residual binding, % of control [33]: 0.8%
- inhibition [34]: 0%
- residual binding, % of control [35]: 0.1%
- level, % of control [36]: 1.8%
- level, % of control [37]: 32%
- residual binding, % of control [38]: 72%
- residual binding, % of control [39]: 1.9%
- inhibition [40]: 93%
- level, % of control [41]: 0.6%
- inhibition [42]: 93%

Compound: CCN1CCN(Cc2ccc(NC(=O)c3ccc(C)c(C#Cc4cccnc4)c3)cc2C(F)(F)F)CC1
- residual binding, % of control [1]: 51%
- residual binding, % of control [2]: 100%
- residual binding, % of control [3]: 77%
- % of control [4]: 3.7%
- inhibition [5]: 57%
- level, % of control [6]: 10%
- inhibition [7]: 30%
- inhibition [8]: 0.25%
- inhibition [9]: 90%
- residual binding, % of control [10]: 100%
- level, % of control [11]: 0%
- residual binding, % of control [12]: 1.6%
- residual binding, % of control [13]: 27%
- residual binding, % of control [14]: 12%
- inhibition [15]: 85%
- inhibition [16]: 21%
- level, % of control [17]: 100%
- residual binding, % of control [18]: 100%
- residual binding, % of control [19]: 3.4%
- residual binding, % of control [20]: 0.35%
- inhibition [21]: 1.6%
- residual binding, % of control [22]: 7.4%
- residual binding, % of control [23]: 8.2%
- residual binding, % of control [24]: 78%
- level, % of control [25]: 7.4%
- residual binding, % of control [26]: 16%
- residual binding, % of control [27]: 65%
- residual binding, % of control [28]: 0%
- residual binding, % of control [29]: 47%
- residual binding, % of control [30]: 0%
- residual binding, % of control [31]: 0%
- level, % of control [32]: 0.5%
- residual binding, % of control [33]: 1.6%
- inhibition [34]: 0.05%
- residual binding, % of control [35]: 0.05%
- level, % of control [36]: 0.95%
- level, % of control [37]: 24%
- residual binding, % of control [38]: 78%
- residual binding, % of control [39]: 0.65%
- inhibition [40]: 93%
- level, % of control [41]: 0.1%
- inhibition [42]: 93%
